Assay results taken from paper PMC4503980 (Scientific Reports, 2015).

Experiments:
PDZ1 of PSD-95 = molecular target: T1, PDZ1 of PSD-95 (Homo sapiens, UniProt P78352); assay: FP inhibition assay, Cy5-GluN2B probe / PDZ1; format: binding; settings: concentrations reaching 500–1800 μM; Cy5-GluN2B 50 nM; [PDZ1] = 10 μM (ZL006) or 18 μM (IC87201)
T1 construct: PDZ1 (61-151); made in house; host or cells: E. coli BL21-DE3 pLysS
Experimental: (§1) Fluorescent probes were made by attaching fluorophores (Cy5) to C-terminal 10- or 11-mer (C10 or C11) peptide ligands representing canonical and natural occurring protein partners (Supplementary Table S1). […] (Fig. 2).
(b) Cy5-GluN2B as probe (50 nM), [PDZ2] = 6 μM. (c) Cy5-CRIPT as probe (50 nM), [PDZ3] = 5 μM. […] Error bars indicate SEM based on three individual measurements. […]
Incubation time was 10–15 minutes (room temperature), and the assay was performed in a 1 × TBS buffer (150 mM NaCl, 10 mM Tris, pH 7.4) using black flat-bottom 384-well plates (Corning Life Sciences, NY) and a Safire2 plate-reader (Tecan, Männedorf, Switzerland). […] TAMRA- and Cy5-probes were measured at excitation/emission values of 530/585 nm (bandwidth = 20 nm) and 635/670 nm (bandwidth = 15 nm), respectively. […]
(§2) FP values were fitted to the general equation: Y = Bottom + (Top–Bottom)/[1 + (10^(X-logIC50)*HillSlope)], where X is the logarithmic value of peptide/compound concentration, and Y is the experimental FP values. Competitive inhibition constants, Ki values, were calculated from the IC50 values to quantify affinities between test substance and protein[42]. […]

nNOS-PDZ = molecular target: T2, nNOS-PDZ (Homo sapiens, UniProt P29475); assay: FP saturation and inhibition assay, Cy5-Nav1.4 probe / nNOS-PDZ; format: binding; settings: concentrations reaching 500–1800 μM; Cy5-Nav1.4 50 nM; [nNOS-PDZ] = 20 μM (ZL006) or 10 μM (IC87201)
T2 construct: nNOS-PDZ (12–130, human); made in house; host or cells: E. coli
T2 sequence (P29475 12-130): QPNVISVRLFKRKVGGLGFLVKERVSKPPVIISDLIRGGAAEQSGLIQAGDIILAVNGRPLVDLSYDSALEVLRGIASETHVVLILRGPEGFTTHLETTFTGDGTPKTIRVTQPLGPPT
Experimental: as §1
(b) Cy5-GluN2B as probe (50 nM), [PDZ2] = 6 μM. (c) Cy5-CRIPT as probe (50 nM), [PDZ3] = 5 μM. […] Error bars indicate SEM based on three individual measurements.
nNOS-PDZ (12–130, human) and α-Syntrophin-PDZ (82–200, human), both comprising an N-terminal His-tag/FXa-site sequence ([…]), were likewise expressed in E. coli and purified by HisTrap chromatography followed by gel-filtration as described in details previously. To make the TAMRA-labelled nNOS-PDZ, mutant nNOS-PDZ (V36C) protein was generated by standard site-directed mutagenesis and characterized as described previously. Here, dithiothreitol was added to the pooled protein sample after HisTrap purification to a final concentration of 10 mM to eliminate unwanted disulfide bonds, and a final gel-filtration (50 mM NaPi buffer pH 7.5) was performed to remove impurities and salts. Next, purified nNOS-PDZ (V36C) was desalted by dialysis into 50 mM (NH4)2CO3 buffer (SnakeSkin dialysis tubing 3.5 MWCO, Pierce, Rockford, IL, USA) and subsequently lyophilized. nNOS-PDZ (V36C) was redissolved in 500 μL buffer (6 M GnHCl, 200 mM NaPi) and solid TAMRA-maleimide (5-tetramethylrhodamine-C2-maleimide; Anaspec, Fremont, CA, USA) was added in excess (cf. ESI-LC-MS). The coupling reaction was incubated at room temperature for 16 hours and TAMRA-labelled nNOS-PDZ was purified by preparative HPLC, and refolded in assay buffer. Functional validation was performed by FP[19], and all final proteins were characterized for purity and identity by SDS-PAGE and ESI-LC-MS.
Incubation time was 10–15 minutes (room temperature), and the assay was performed in a 1 × TBS buffer (150 mM NaCl, 10 mM Tris, pH 7.4) using black flat-bottom 384-well plates (Corning Life Sciences, NY) and a Safire2 plate-reader (Tecan, Männedorf, Switzerland). G-factor was adjusted so that probe alone (i.e. without protein interacting-partner) would give an FP value of 20 mP. This background value was subsequently subtracted from the raw data before plotting and analyzing the data. TAMRA- and Cy5-probes were measured at excitation/emission values of 530/585 nm (bandwidth = 20 nm) and 635/670 nm (bandwidth = 15 nm), respectively. […]
as §2

[1] = system: NMDA receptor-mediated NO synthesis; parameters: method as in PMID 21102461; settings: cited from earlier work
PSD-95-PDZ2 = PSD-95-PDZ2 (Homo sapiens, UniProt P78352); assay: ITC titration into PSD-95-PDZ2; format: binding; parameters: PSD-95-PDZ2 (157–249, human); made in house; settings: 100 μM protein in cell, 750 μM compound in syringe, 1% DMSO, pH 6.3, 25 °C
From the text: (§3) Unlike the FP experiments above, which rely on inhibition of interaction partners, the ITC method is a direct measure of binding, regardless of where it takes place on the protein.
(§4) Figure 5 ITC curves. Plots showing titrations into PDZ domains fitted to a one-site model.
For isothermal titration calorimetry (ITC) and NMR, PSD-95-PDZ2 (157–249, human) was expressed and purified as described previously. The sequence for the extended Mus musculus nNOS-PDZ (residues 12–134, Uniprot Q9JJ30) was sub-cloned into a pETM11 vector using cloning sites Nco1 and Kpn1, and the protein was expressed and purified following a similar protocol to that used for the production of PSD-95-PDZ2.
(§5) All ITC experiments were carried out at 25 °C on an iTC200 Microcalorimeter (GE Healthcare) with a 200 μL cell capacity and 40 μL syringe volume. The buffer used for all solutions was 20 mM phosphate buffer at pH 6.3; each experiment consisted of an initial injection of 0.5 μL, followed by fifteen 2.39 μL injections before a final injection of 1.89 μL. […] In both cases no heat exchange was detected, confirming that there was appropriate match of buffer conditions with no indication of dilution effects. […] For the nNOS-PDZ/PSD-95-PDZ2 interaction, 100 μM PDZ2 in the cell was titrated with 750 μM nNOS-PDZ. […] All data was analysed using the Origin®7 software programme.

[2] = molecular target: T3, nNOS-PDZ/PSD-95-PDZ2 interaction (Mus musculus, UniProt Q9Z0J4); assay: ITC of nNOS-PDZ/PSD-95-PDZ2 interaction in the presence of compound; format: binding; settings: 1 mM IC87201 present; significant interference, reduced reliability
T3 construct: nNOS-PDZ (residues 12–134, Uniprot Q9JJ30); PSD-95-PDZ2 (157–249, human); made in house
T3 sequence (Q9Z0J4 12-134): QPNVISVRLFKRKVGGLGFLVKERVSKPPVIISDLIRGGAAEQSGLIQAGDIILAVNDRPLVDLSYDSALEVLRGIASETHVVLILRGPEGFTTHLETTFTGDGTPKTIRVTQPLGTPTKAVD
Experimental: as §3, §4, §5

two mice pain models = system: two mice pain models; parameters: method as in PMID 19732061; settings: cited from earlier work

Structure (SMILES) | inhibition of probe-PDZ interaction (PDZ1) (PDZ1 of PSD-95) | inhibition of probe-PDZ interaction (nNOS-PDZ) (nNOS-PDZ) | NMDA receptor-mediated NO synthesis [1] | binding to PSD-95-PDZ2 by ITC (PSD-95-PDZ2) | effect on affinity between nNOS-PDZ and PSD-95-PDZ2 (ITC) [2] | analgesic properties (two mice pain models)
O=C(O)c1ccc(NCc2cc(Cl)cc(Cl)c2O)cc1O [ZL006, 4-((3,5-Dichloro-2-hydroxybenzyl)amino)-2-hydroxybenzoic acid] | did not inhibit | did not inhibit | inhibited | binding was too weak to produce a binding isotherm |  | 
Oc1c(Cl)cc(Cl)cc1CNc1ccc2[nH]nnc2c1 [IC87201, 2-((1H-Benzo[d][1–3]triazol-5-ylamino)methyl)-4-6-dichlorophenol] | did not inhibit | did not inhibit |  | does not bind | appeared to be affected | analgesic properties
